US20060263802A1 (priority 2003, published 2006)

What was measured:
Assay type in all cases: binding
[1] = system: human monoclonal antibody CR57
[2] = system: human monoclonal antibody CRJB
[3] = system: human monoclonal antibody CR57; remark: listed apart in the source
[4] = system: human monoclonal antibody CRJA
[5] = system: human monoclonal antibody CRJB; remark: listed apart in the source
[6] = system: human monoclonal antibody CR57; remark: listed apart in the source
[7] = system: human monoclonal antibody CRJA; remark: listed apart in the source

ACKLKLCGVL
binding of CR57 to 12-, 10- and 8-mer peptides [1]: bound

ACKLKLCGVLGL
binding of CR57 to 12-, 10- and 8-mer peptides [1]: bound

CKLKLCGVLG
binding of CR57 to 12-, 10- and 8-mer peptides [1]: bound

CKLKLCGVLGLR
binding of CR57 to 12-, 10- and 8-mer peptides [1]: bound

GACKLKLCGVLG
binding of CR57 to 12-, 10- and 8-mer peptides [1]: bound

KGACKLKLCGVL
binding of CR57 to 12-, 10- and 8-mer peptides [1]: bound

KLCGVLGL
binding of CR57 to 12-, 10- and 8-mer peptides [1]: bound

KLCGVLGLRLMD
binding of CR57 to 12-, 10- and 8-mer peptides [1]: bound

KLKLCGVL
binding of CR57 to 12-, 10- and 8-mer peptides [1]: bound

KLKLCGVLGL
binding of CR57 to 12-, 10- and 8-mer peptides [1]: bound

LKLCGVLG
binding of CR57 to 12-, 10- and 8-mer peptides [1]: bound

LKLCGVLGLR
binding of CR57 to 12-, 10- and 8-mer peptides [1]: bound

YTIFNKTLMEADAHY
Binding of CRJB to linear peptide (PEPSCAN-ELISA signal) [2]: 147 | Binding of CR57 to linear peptide (PEPSCAN-ELISA signal) [3]: 104 | Binding of CRJA to linear peptide (PEPSCAN-ELISA signal) [4]: 90 | Binding of CRJB (10 μg/ml) to looped/cyclic peptide (PEPSCAN-ELISA) [5]: 79 | Binding of CR57 (10 μg/ml) to looped/cyclic peptide (PEPSCAN-ELISA) [6]: 119 | Binding of CRJA (10 μg/ml) to looped/cyclic peptide (PEPSCAN-ELISA) [7]: 108

YTILDKLGPWSPIDI
Binding of CRJB to linear peptide (PEPSCAN-ELISA signal) [2]: 114 | Binding of CR57 to linear peptide (PEPSCAN-ELISA signal) [3]: 48 | Binding of CRJA to linear peptide (PEPSCAN-ELISA signal) [4]: 93 | Binding of CRJB (10 μg/ml) to looped/cyclic peptide (PEPSCAN-ELISA signal) [5]: 73 | Binding of CR57 (10 μg/ml) to looped/cyclic peptide (PEPSCAN-ELISA signal) [6]: 75 | Binding of CRJA (10 μg/ml) to looped/cyclic peptide (PEPSCAN-ELISA signal) [7]: 91

YTIWMPENPRLGMSC
Binding of CRJB to linear peptide (PEPSCAN-ELISA signal) [2]: 132 | Binding of CR57 to linear peptide (PEPSCAN-ELISA signal) [3]: 97 | Binding of CRJA to linear peptide (PEPSCAN-ELISA signal) [4]: 111 | Binding of CRJB (10 μg/ml) to looped/cyclic peptide (PEPSCAN-ELISA signal) [5]: 132 | Binding of CR57 (10 μg/ml) to looped/cyclic peptide (PEPSCAN-ELISA signal) [6]: 191 | binding of antibody CR57 to looped/cyclic peptide (PEPSCAN OD) [6]: clearly bound | Binding of CRJA (10 μg/ml) to looped/cyclic peptide (PEPSCAN-ELISA signal) [7]: 93

YTNFVGYVTTTFKRK
Binding of CRJB to linear peptide (PEPSCAN-ELISA signal) [2]: 104 | Binding of CR57 to linear peptide (PEPSCAN-ELISA signal) [3]: 51 | Binding of CRJA to linear peptide (PEPSCAN-ELISA signal) [4]: 76 | Binding of CRJB (10 μg/ml) to looped/cyclic peptide (PEPSCAN-ELISA signal) [5]: 90 | Binding of CR57 (10 μg/ml) to looped/cyclic peptide (PEPSCAN-ELISA signal) [6]: 71 | Binding of CRJA (10 μg/ml) to looped/cyclic peptide (PEPSCAN-ELISA signal) [7]: 72

YVTTTFKRKHFRPTP
Binding of CRJB to linear peptide (PEPSCAN-ELISA signal) [2]: 106 | Binding of CR57 to linear peptide (PEPSCAN-ELISA signal) [3]: 85 | Binding of CRJA to linear peptide (PEPSCAN-ELISA signal) [4]: 84 | Binding of CRJB (10 μg/ml) to looped/cyclic peptide (PEPSCAN-ELISA signal) [5]: 111 | Binding of CR57 (10 μg/ml) to looped/cyclic peptide (PEPSCAN-ELISA signal) [6]: 146 | Binding of CRJA (10 μg/ml) to looped/cyclic peptide (PEPSCAN-ELISA signal) [7]: 137
